Laboratory results from article PMC11240924, “Isolation, Identification, and Biological Activities of a New Chlorin e6 Derivative” (International Journal of Molecular Sciences, 2024).

System: ICR mice
Assay: Biodistribution, ex vivo organ fluorescence
Format: in vivo
Conditions: 2.5 mg/kg intravenous
Protocol: The animal study was approved by the Institutional Animal Care and Use Committee of the Dongsung Cancer Center under protocol IACUC # ds0022010107-2. The experiments were carried out in compliance with the ARRIVE guidelines. Male ICR mice (4 weeks old, OrientBio, Seongnam City, Republic of Korea) were used for the biodistribution study. The biodistribution analysis for rhodin g7 7^1-ethyl ester was calculated using tissue fluorescence. ICR mice (n = 7) were injected with or without rhodin g7 7^1-ethyl ester (2.5 mg/kg) intravenously. After the administration of rhodin g7 7^1-ethyl ester for 0, 24, 48, 72, 96, and 120 h, the mice were sacrificed, and their organs (kidney, spleen, heart, lungs, liver, skin, and pancreas) were resected. Fluorescence imaging was used to determine the ex vivo organ distributions of rhodin g7 7^1-ethyl ester utilizing the FOBI imaging system (Neo-Science, Suwon, Republic of Korea). For the rhodin g7 7^1-ethyl ester extraction, the organ tissues were then mixed with lysis buffer, homogenized in a tissue homogenizer, and centrifuged at 9000 rpm for 15 min. The rhodin g7 7^1-ethyl ester content in the supernatant was then evaluated using a Spark Multimode Microplate Reader (Tecan Trading AG, Männedorf, Switzerland) spectrophotometrically at 660 nm. The fluorescence intensity was adjusted to the tissue weight.

time of peak fluorescence intensity post injection, all organs (0-120 h): 0 h | organ with greatest signal intensity (predominant accumulation) (ex vivo FLI of excised organs): liver
SMILES: C=Cc1c(C)c2cc3nc(c(CC(=O)O)c4[nH]c(cc5nc(cc1[nH]2)C(C(=O)OCC)=C5CC)c(C)c4C(=O)O)[C@@H](CCC(=O)O)[C@@H]3C [rhodin g7 7^1-ethyl ester]
